The values below come from ChEMBL document CHEMBL4043133, “Discovery of a novel B-cell lymphoma 6 (BCL6)-corepressor interaction inhibitor by utilizing structure-based drug design” (Bioorg Med Chem, 2017).

For data set [1], the target named is T1, BCoR-BCL6 (Homo sapiens, UniProt P41182).
Description: Inhibition of C-terminal biotin-labelled BCoR/wild-type BCL6 BTB domain (unknown origin) protein-protein interaction by ELISA
Data set [2] addresses T2, B-cell lymphoma 6 protein (Homo sapiens, UniProt P41182).
Description: Binding affinity to wild-type avi-tagged BCL6 BTB domain (unknown origin) by SPR analysis
Data set [3] is described as follows: Aqueous solubility of the compound in aqueous buffer at pH 6.8 by UV-absorbance analysis. The data set is classed as physicochemical.
Data set [4] in a line: Permeability of the compound at pH 7.4 at 10 umol/L after 3 hrs by PAMPA. The data set is classed as physicochemical. The conditions noted are these: for Papp at 3 h, 10 µM: PAMPA, pH 7.4, read-out: permeability; for permeability: pampa, pH 7.4, 3 h, 10 µM.
The nature of data set [5]: Volume of distribution at steady state in mouse at 1 mg/kg, po or 0.1 mg/kg, iv administered as cassette dosing. It counts as ADME, organism-based. The settings on record: in vivo, read-out: Vdss.
For data set [6], the target named is T1, BCoR-BCL6. The data set can be described thus: Inhibition of recombinant human BCoR (112 to 753 residues) protein interaction with recombinant GAL4-fused BCL6 (5 to 129 residues) expressed in HEK293T cells measured after 20 hrs by luciferase reporter gene based mammalian two-hybrid assay. The data set is classed as cell-based, HEK-293T.
The nature of data set [7]: Tmax in mouse at 1 mg/kg, po administered as cassette dosing. The settings on record: in vivo. The data set is classed as ADME, organism-based.
Data set [8] in a line: Oral bioavailability in mouse at 1 mg/kg administered as cassette dosing. It counts as ADME, organism-based. The settings on record: in vivo.
A short description of data set [9]: Mean residence time in mouse at 1 mg/kg, po administered as cassette dosing. The settings on record: in vivo. The data set is classed as ADME, organism-based.
A short description of data set [10]: Total clearance in mouse at 1 mg/kg, po or 0.1 mg/kg, iv administered as cassette dosing. The settings on record: in vivo. It counts as ADME, organism-based.
Data set [11] is described as follows: Cytotoxicity against human HepG2 cells assessed as intracellular ATP levels at 30 uM after 24 hrs by CellTiter-Glo assay relative to control. The conditions noted are these: read-out: Activity. It counts as cell-based.
A short description of data set [12]: AUC in mouse at 1 mg/kg, po administered as cassette dosing. It counts as ADME, organism-based. The conditions noted are these: in vivo.
A short description of data set [13]: Cmax in mouse at 1 mg/kg, po administered as cassette dosing. The data set is classed as ADME, organism-based. Also on record: dose 1 mg/kg, route oral. The conditions noted are these: in vivo.
Data set [14] addresses T2, B-cell lymphoma 6 protein. Nature of the data set: Displacement of A488-SMRT from BCL6 BTB domain (unknown origin) by fluorescence polarization assay.

In brackets after ≈: the same amount, converted by molar mass.

The compound `O=c1[nH]c2ccc(Nc3ccc([N+](=O)[O-])cc3Cl)cc2[nH]1` came in with a half-maximal inhibitory concentration (IC50) against BCoR-BCL6 [1] of 4.5 µM. Also, the Kd in [2] amounted to 5 µM.
Take `O=c1[nH]c2ccc(Nc3ccc([N+](=O)[O-])cc3Br)cc2[nH]1`: inhibition at BCoR-BCL6 [1] was half-maximal at 83 µM (IC50).
On BCoR-BCL6 [1], `O=C(O)c1ccc(Nc2ccc3[nH]c(=O)[nH]c3c2)c(Cl)c1` registered an IC50 of 62 µM.
As to `O=c1[nH]c2ccc(Nc3cc(NCc4cccnc4)c([N+](=O)[O-])cc3Cl)cc2[nH]1`, it took 0.15 µM to reach half-maximal inhibition against BCoR-BCL6 [1] (IC50). Moreover, in [3], the solubility was less than 0.23 µg/mL. Moreover, the Papp at 3 h, 10 µM in [4] worked out at 14.7 ×10⁻⁶ cm/s.
Regarding `O=C1CCc2cc(Nc3cc(OC4CCOCC4)c([N+](=O)[O-])cc3Cl)ccc2N1`, the half-inhibitory concentration (IC50) against BCoR-BCL6 [1] came to 0.1 µM; on BCoR-BCL6 [6] it was 0.72 µM. In addition, the Vd in data set [5] was found to be 1.51 L/kg. The time to peak (Tmax) in data set [7] was determined as 2 h. Also, the bioavailability in [8] is 79.9%. In addition, in data set [9], the MRT worked out at 3.3 h. The compound also gave a clearance in data set [10] of 10.5 mL/min/kg. Also, the viability at 24 h, 30 µM in data set [11] was 83%. Further, in data set [3], the solubility turned out to be 12 µg/mL (≈ 28.7 µM). In [12], this compound returned an exposure (AUC) of 1270 ng·h/mL. Further, the peak concentration (Cmax) in data set [13] turned out to be 233 ng/mL. In addition, the Papp at 3 h, 10 µM in data set [4] came out at 20.6 ×10⁻⁶ cm/s.
For the compound `O=[N+]([O-])c1c(NCCCO)cc(Nc2ccc(F)cc2)c2nonc12`, the IC50 against BCoR-BCL6 [1] was 14 µM. In data set [2], this compound registered a dissociation constant (Kd) of 24 µM.
`Nc1cc(Nc2ccccc2)c2nonc2c1[N+](=O)[O-]` returned an IC50 against BCoR-BCL6 [1] of 69 µM.
The same measure, in the same setting: as for `NC(=O)c1ccc(Nc2ccc3[nH]c(=O)[nH]c3c2)c(Cl)c1`, the figure is 43 µM.
In the case of `O=c1[nH]c2ccc(Nc3cc(NCCCO)c([N+](=O)[O-])cc3Cl)cc2[nH]1`, the IC50 is 0.24 µM against BCoR-BCL6 [1] and more than 100 µM at BCoR-BCL6 [6]. Also, in [3], the concentration in solution (solubility) came to 0.09 µg/mL (≈ 0.238 µM). In addition, the permeability entry in [4] is given as “Impermeable”.
In the case of `COC(=O)c1ccc(Nc2ccc3[nH]c(=O)[nH]c3c2)c(Cl)c1`, the IC50 at BCoR-BCL6 [1] was 8.6 µM.
`O=c1[nH]c2ccc(Nc3cc(OC4CCOCC4)c([N+](=O)[O-])cc3Cl)cc2[nH]1` showed a 50% inhibitory concentration (IC50) against BCoR-BCL6 [1] of 0.22 µM. The viability at 24 h, 30 µM in [11] came out at 100%. For the same compound, the solubility in data set [3] was found to be 18 µg/mL (≈ 44.5 µM). The Papp at 3 h, 10 µM in [4] stood at 4.5 ×10⁻⁶ cm/s.
Take `O=c1[nH]c2ccc(Nc3cc(NC4CCOCC4)c([N+](=O)[O-])cc3Cl)cc2[nH]1`: half-maximal inhibition against BCoR-BCL6 [1] (IC50) required 0.13 µM. In data set [3], this compound returned a solubility of 0.61 µg/mL (≈ 1.51 µM). Further, the Papp at 3 h, 10 µM in data set [4] came to 10.1 ×10⁻⁶ cm/s.
On BCoR-BCL6 [1], `O=C(O)CCNc1cc(Nc2ccc3[nH]c(=O)[nH]c3c2)c(Cl)cc1[N+](=O)[O-]` gave an IC50 of 0.13 µM. The solubility in [3] was more than 72 µg/mL. In [4], the permeability result is on record as “Impermeable”.
As for `CCOC(=O)CCNc1cc(Nc2ccc3[nH]c(=O)[nH]c3c2)c(Cl)cc1[N+](=O)[O-]`, the half-maximal inhibitory concentration (IC50) against BCoR-BCL6 [1] was determined as 0.43 µM. In data set [3], this compound returned a solubility of 0.42 µg/mL (≈ 1 µM). In addition, the Papp at 3 h, 10 µM in [4] stood at 15.1 ×10⁻⁶ cm/s.
Take `O=C1Cc2cc(Nc3cc(OC4CCOCC4)c([N+](=O)[O-])cc3Cl)ccc2N1`: in [11], the viability at 24 h, 30 µM is 99%. Further, in [3], the solubility came out at 12 µg/mL (≈ 29.7 µM). In addition, the Papp at 3 h, 10 µM in [4] was found to be 28.8 ×10⁻⁶ cm/s.
`O=c1[nH]c2ccc(Nc3ccc([N+](=O)[O-])cc3C(F)(F)F)cc2[nH]1`: the IC50 on BCoR-BCL6 [1] was more than 300 µM.
Still for that read-out and setting: the value for `N#Cc1cc([N+](=O)[O-])ccc1Nc1ccc2[nH]c(=O)[nH]c2c1` was 4.3 µM; that for `N#Cc1ccc(Nc2ccc3[nH]c(=O)[nH]c3c2)c(Cl)c1` [TP-021n] was 110 µM.
Take `O=C(O)CC(C(=O)O)N1C(=O)/C(=C2/C(=O)Nc3ccc(Br)cc32)SC1=S` (centres undefined): the concentration for half-maximal inhibition (IC50) on BCoR-BCL6 [1] amounted to 200 µM; in [14], 212 µM.
